From patent US20210101928A1 (Sage Therapeutics, Inc., priority 2017, published 2021)

The compounds below were run against GABAA receptor ([35S]-TBPS binding, rat brain cortical membranes) (assay: Steroid inhibition of [35S]-TBPS binding). Details: Table I-1, 3 nM [35S]-TBPS, in the presence of 5 mM GABA, read-out: TBPS binding IC50.
Experimental: [^35S]-t-Butylbicyclophosphorothionate (TBPS) binding assays using rat brain cortical membranes in the presence of 5 mM GABA has been described (Gee et al, J. Pharmacol. Exp. Ther. 1987, 241, 346-353; Hawkinson et al, Mol. Pharmacol. 1994, 46, 977-985; Lewin, A. H et al., Mol. Pharmacol. 1989, 35, 189-194).
Briefly, cortices are rapidly removed following decapitation of carbon dioxide-anesthetized Sprague-Dawley rats (200-250 g). The cortices are homogenized in 10 volumes of ice-cold 0.32 M sucrose using a glass/teflon homogenizer and centrifuged at 1500×g for 10 min at 4° C. The resultant supernatants are centrifuged at 10,000×g for 20 min at 4° C. to obtain the P2 pellets. The P2 pellets are resuspended in 200 mM NaCl/50 mM Na—K phosphate pH 7.4 buffer and centrifuged at 10,000×g for 10 min at 4° C. This washing procedure is repeated twice and the pellets are resuspended in 10 volumes of buffer. Aliquots ([…]) of the membrane suspensions are incubated with 3 nM [^35S]-TBPS and […] aliquots of test drug dissolved in dimethyl sulfoxide (DMSO) (final 0.5%) in the presence of 5 mM GABA. The incubation is brought to a final volume of 1.0 mL with buffer. Nonspecific binding is determined in the presence of […] and ranged from 15 to 25%. Following a 90 min incubation at room temp, the assays are terminated by filtration through glass fiber filters (Schleicher and Schuell No. 32) using a cell harvester (Brandel) and rinsed three times with ice-cold buffer. Filter bound radioactivity is measured by liquid scintillation spectrometry. Non-linear curve fitting of the overall data for each drug averaged for each concentration is done using Prism (GraphPad). […] The concentration of test compound producing 50% inhibition (IC50) of specific binding and the maximal extent of inhibition (Imax) are determined for the individual experiments with the same model used for the overall data and then the means±SEM.s of the individual experiments are calculated.
Various compounds are or can be screened to determine their potential as modulators of [^35S]-TBPS binding in vitro. These assays are or can be performed in accordance with the above.

Row | SMILES | IC50
1 | Cc1nnn(CC(=O)[C@H]2CC[C@H]3[C@@H]4CC[C@]5(C)C[C@](C)(O)CC[C@]5(C)[C@H]4CC[C@]23C)n1 [I-A9, 1-((3R,5R,8S,9S,10R,13S,14S,17S)-3-hydroxy-3,5,10,13-tetramethylhexadecahydro-1H-cyclopenta[a]phenanthren-17-yl)-2-(5-methyl-2H-tetrazol-2-yl)ethan-1-one] | 100 to 1000 nM

Same assay, conditions: Table II-2, 3 nM [35S]-TBPS, in the presence of 5 mM GABA, read-out: TBPS IC50

Row | SMILES | IC50
2 | CCOC[C@@]1(O)CC[C@@]2(CC)[C@H](CC[C@H]3[C@@H]4CC[C@H](C(=O)N5CCCC[C@@H]5c5ccc(F)cc5)[C@@]4(C)CC[C@@H]32)C1 [II-50, ((3R,5R,8S,9S,10S,13S,14S,17S)-3-(ethoxymethyl)-10-ethyl-3-hydroxy-13-methylhexadecahydro-1H-cyclopenta[a]phenanthren-17-yl)((R)-2-(4-fluorophenyl)piperidin-1-yl)methanone] | 100 to 1000 nM
3 | CC[C@]12CC[C@@](C)(O)C[C@@H]1CC[C@H]1[C@@H]3CC[C@H](C(=O)Cn4cccn4)[C@@]3(C)CC[C@@H]12 [II-A7, 1-((3R,5S,8S,9S,10S,13S,14S,17S)-10-ethyl-3-hydroxy-3,13-dimethylhexadecahydro-1H-cyclopenta [a]phenanthren-17-yl)-2-(1H-pyrazol-1-yl)ethan-1-one] | 10 to 100 nM
4 | CCOC[C@@]1(O)CC[C@@]2(CC)[C@@H](CC[C@H]3[C@@H]4CC[C@H](C(=O)Cn5ccc(C#N)n5)[C@@]4(C)CC[C@@H]32)C1 [II-D13, 1-(2-((3R,5S,8S,9S,10S,13S,14S,17S)-3-(ethoxymethyl)-10-ethyl-3-hydroxy-13-methylhexadecahydro-1H-cyclopenta[a]phenanthren-17-yl)-2-oxoethyl)-1H-pyrazole-3-carbonitrile] | 10 to 100 nM
5 | CC[C@]12CC[C@](O)(COC)C[C@@H]1CC[C@H]1[C@@H]3CC[C@H](C(=O)Cn4ccc(C#N)n4)[C@@]3(C)CC[C@@H]12 [II-E8, 1-(2-((3R,5S,8S,9S,10S,13S,14S,17S)-10-ethyl-3-hydroxy-3-(methoxymethyl)-13-methylhexadecahydro-1H-cyclopenta[a]phenanthren-17-yl)-2-oxoethyl)-1H-pyrazole-3-carbonitrile] | < 10 nM
6 | CCOC[C@@]1(O)CC[C@@]2(CC)[C@@H](CC[C@H]3[C@@H]4CC[C@H](C(C)=O)[C@@]4(C)CC[C@@H]32)C1 [II-D9] | 10 to 100 nM
7 | CC[C@]12CC[C@@](C)(O)C[C@H]1CC[C@H]1[C@@H]3CC[C@H](C(=O)N4CC[C@@H](c5ccccc5)C4)[C@@]3(C)CC[C@@H]12 [II-1] | 10 to 100 nM
8 | CCOC[C@@]1(O)CC[C@@]2(CC)C(CC[C@@H]3[C@@H]2CC[C@]2(C)[C@@H](C(=O)Cn4nnc(C)n4)CC[C@@H]32)C1 (stereo in doubt) [II-77, 1-((3R,5R,8S,9S,10S,13S,14S,17S)-3-(ethoxymethyl)-10-ethyl-3-hydroxy-13-methylhexadecahydro-1H-cyclopenta[a]phenanthren-17-yl)-2-(5-methyl-2H-tetrazol-2-yl)ethan-1-one] | 10 to 100 nM
9 | CCOC[C@@]1(O)CC[C@@]2(CC)[C@H](CC[C@H]3[C@@H]4CC[C@H](C(=O)N5CCCC[C@@H]5C)[C@@]4(C)CC[C@@H]32)C1 [II-44, ((3R,5R,85,95,10S,13S,14S,17S)-3-(ethoxymethyl)-10-ethyl-3-hydroxy-13-methylhexadecahydro-1H-cyclopenta[a]phenanthren-17-yl)((S)-2-methylpiperidin-1-yl)methanone] | 100 to 1000 nM
10 | CC[C@H]1CCCCN1C(=O)[C@H]1CC[C@H]2[C@@H]3CC[C@@H]4C[C@](C)(O)CC[C@]4(CC)[C@H]3CC[C@]12C [II-21, ((3R,5R,8S,9S,10S,13S,14S,17S)-10-ethyl-3-hydroxy-3,13-dimethylhexadecahydro-cyclopenta[a]phenanthren-17-yl)((S)-2-ethylpiperidin-1-yl)methanone] | 10 to 100 nM
11 | CC[C@]12CC[C@@](C)(O)C[C@@H]1CC[C@H]1[C@@H]3CC[C@H](C(=O)Cn4nccn4)[C@@]3(C)CC[C@@H]12 [II-A8a] | 10 to 100 nM
12 | CCOC[C@@]1(O)CC[C@@]2(CC)[C@H](CC[C@H]3[C@@H]4CC[C@H](C(=O)Cn5nccn5)[C@@]4(C)CC[C@@H]32)C1 [II-75, 1-((3R,5R,8S,9S,10S,13S,14S,17S)-3-(ethoxymethyl)-10-ethyl-3-hydroxy-13-methylhexadecahydro-1H-cyclopenta[a]phenanthren-17-yl)-2-(2H-1,2,3-triazole-2-yl)ethan-1-one] | 10 to 100 nM
13 | CCOC[C@@]1(O)CC[C@@]2(CC)[C@H](CC[C@H]3[C@@H]4CC[C@H](C(=O)Cn5ccc(C#N)n5)[C@@]4(C)CC[C@@H]32)C1 [II-79, 1-(2-((3R,5R,8S,9S,10S,13S,14S,17S)-3-(ethoxymethyl)-10-ethyl-3-hydroxy-13-methylhexadecahydro-1H-cyclopenta[a]phenanthren-17-yl)-2-oxoethyl)-1H-pyrazole-3-carbonitrile] | < 10 nM
14 | CCOC[C@@]1(O)CC[C@@]2(CC)[C@H](CC[C@H]3[C@@H]4CC[C@H](C(=O)N5CCCC[C@H]5c5ccc(F)cc5)[C@@]4(C)CC[C@@H]32)C1 [II-51, ((3R,5R,8S,9S,10S,13S,14S,17S)-3-(ethoxymethyl)-10-ethyl-3-hydroxy-13-methylhexadecahydro-1H-cyclopenta[a]phenanthren-17-yl)((S)-2-(4-fluorophenyl)piperidine-1-yl)methanone] | 10 to 100 nM
15 | CCOC[C@@]1(O)CC[C@@]2(CC)[C@H](CC[C@H]3[C@@H]4CC[C@H](C(=O)N5CCCC[C@H]5C)[C@@]4(C)CC[C@@H]32)C1 [II-45, ((3R,5R,8S,9S,10S,13S,14S,17S)-3-(ethoxymethyl)-10-ethyl-3-hydroxy-13-methylhexadecahydro-1H-cyclopenta[a]phenanthren-17-yl)((R)-2-methylpiperidin-1-yl)methanone] | 10 to 100 nM
16 | CC[C@]12CC[C@@](C)(O)C[C@H]1CC[C@H]1[C@@H]3CC[C@H](C(=O)N4CCCC[C@@H]4C)[C@@]3(C)CC[C@@H]12 [II-20, ((3R,5R,8S,9S,10S,13S,14S,17S)-10-ethyl-3-hydroxy-3,13-dimethylhexadecahydro-1H-cyclopenta[a]phenanthren-ren-17-yl)((S)-2-methylpiperidin-1-yl)methanone] | 10 to 100 nM

Same assay, conditions: Table III-1 (biological data), 3 nM [35S]-TBPS, in the presence of 5 mM GABA, read-out: TBPS IC50

Row | SMILES | IC50
17 | CC[C@]12CC[C@H]3[C@@H](CC[C@@H]4C[C@](C)(O)CC[C@@]43C)[C@@H]1CC[C@@H]2C(=O)Cn1nnc(C)n1 [III-A33] | < 10 nM
18 | CC[C@]12CC[C@H]3[C@@H](CC[C@H]4C[C@@](O)(COC)CC[C@@H]43)[C@@H]1CC[C@@H]2C(=O)Cn1nnc(C)n1 [III-A22, 1-((3R,5S,8R,9R,10S,13S,14S,17S)-13-ethyl-3-hydroxy-3-(methoxymethyl)hexadecahydro-1H-cyclopenta [a]phenanthren-17-yl)-2-(5-methyl-2H-tetrazol-2-yl)ethan-1-one] | < 10 nM
19 | COC[C@]12CC[C@H]3[C@@H](CC[C@@H]4C[C@](C)(O)CC[C@@H]43)[C@@H]1CC[C@@H]2C(C)=O [III-C11, 1-((3R,5R,8R,9R,10S,13R,14S,17S)-3-hydroxy-13-(methoxymethyl)-3-methylhexadecahydro-1H-cyclopenta[a]phenanthren-17-yl)ethan-1-one] | 10 to 100 nM
20 | CC[C@]12CC[C@H]3[C@@H](CC[C@H]4C[C@@](O)(COC)CC[C@@H]43)[C@@H]1CC[C@@H]2C(C)=O [III-A20, 1-((3R,5S,8R,9R,10S,13S,14S,17S)-13-ethyl-3-hydroxy-3-(methoxymethyl)hexadecahydro-1H-cyclopenta [a]phenanthren-17-yl)ethan-1-one] | 10 to 100 nM
21 | CC[C@]12CC[C@H]3[C@@H](CC[C@@H]4C[C@](C)(O)CC[C@@]43C)[C@@H]1CC[C@@H]2C(C)=O [III-A30, 1-((3R,5R,8R,9S,10S,13S,14S,17S)-13-ethyl-3-hydroxy-3,10-dimethylhexadecahydro-1H-cyclopenta [a]phenanthren-17-yl)ethan-1-one] | < 10 nM
